Key:
[1] = Inhibition of Geranylgeranyl transferase type I
[2] = biological target: Protein farnesyltransferase (Homo sapiens, UniProt P49354+P49356); test: Inhibition of human recombinant farnesyltransferase; assay type: protein-complex assay

CC(=O)O[C@H]1CC[C@]2(C)[C@H]3Cc4c(O)cc(CO)c(CO)c4O[C@@]3(C)CC[C@H]2C1(C)C
IC50 [1]: > 100 µM
IC50 [2]: 460 µM

COC1OC(OC)c2c1cc(O)c1c2O[C@@]2(C)CC[C@H]3C(C)(C)[C@@H](OC(C)=O)CC[C@]3(C)[C@H]2C1 (stereo partly drawn)
IC50 [1]: > 100 µM
IC50 [2]: 7 µM

CC(=O)O[C@H]1CC[C@]2(C)[C@H]3Cc4c(O)cc(C=O)c(C=O)c4O[C@@]3(C)CC[C@H]2C1(C)C
IC50 [1]: > 100 µM
IC50 [2]: 560 µM

CC(=O)O[C@H]1CC[C@]2(C)[C@H]3Cc4c(O)cc5c(c4O[C@@]3(C)CC[C@H]2C1(C)C)COC5=O [KAMPANOL A]
IC50 [1]: > 100 µM
IC50 [2]: 13 µM

From ChEMBL document CHEMBL1130915, “Kampanols: novel Ras farnesyl-protein transferase inhibitors from Stachybotrys kampalensis” (Bioorg Med Chem Lett, 1998)
